inhibition, pest or weed control and chromatographic logP data for three compounds are collected here from patent publication US20250042886A1, “BIS(HETERO)ARYL THIOETHER OXADIAZINES AS FUNGICIDAL COMPOUNDS” (Bayer Aktiengesellschaft, priority 2021, published 2025).

One data set concerns Septoria tritici. As to the kind of experiment: Septoria tritici in vitro cell test. Format: cell-based. Conditions: Zymoseptoria tritici, 168 h; 20 ppm of active ingredient; liquid culture, 7 days incubation; read-out: efficacy (inhibition of fungal growth). As for the experimental part:
B-11. Septoria tritici In Vitro Cell Test • Solvent: DMSO • Culture medium: 1 g KH2PO4 (VWR), 1 g K2HPO4 (VWR), 0.5 g Urea (VWR), 3 g KNO3 (Prolabo), 10 g saccharose (VWR), 0.5 g MgSO4, 7H2O (Sigma), 0.07 g CaCl2, 2H2O (Prolabo), 0.2 mg MnSO4, H2O (Sigma), 0.6 mg CuSO4, 5H2O (Sigma), 7.9 mg ZnSO4, 7H2O (Sigma), 0.1 mg H3BO3 (Merck), 0.14 mg NaMoO4, 2H2O (Sigma), 2 mg thiamine (Sigma), 0.1 mg biotine (VWR), 4 mg FeSO4, 7H2O (Sigma), QSP 1 liter • Inoculum: spore suspension Fungicides were solubilized in DMSO and the solution used to prepare the required range of concentrations. […] A spore suspension of S. tritici was prepared and diluted to the desired spore density. Fungicides were evaluated for their ability to inhibit spore germination and mycelium growth in liquid culture assay. The compounds were added in the desired concentration to the culture medium with spores. […] Inhibition of fungal growth was determined by comparing the absorbance values in wells containing the fungicides with the absorbance in control wells without fungicides.

The test system of another data set is Alternaria brassicae. The data set can be described thus: In vivo preventive test on Alternaria brassicae (leaf spot on radish or cabbage). Particulars: 500 ppm of active ingredient, sprayed on young radish or cabbage plants 24 h before inoculation, evaluated 3 to 4 days after inoculation, read-out: efficacy. The procedure, abridged: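 Young radish or cabbage plants sprayed preventively with compound formulated in DMSO/acetone/Tween 80 and diluted in water; vehicle-treated plants as controls. Leaves inoculated by spraying an aqueous Alternaria brassicae spore suspension 24 h after treatment.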

The next data set relates to Sphaerotheca fuliginea. As to the kind of experiment: In vivo preventive test on Sphaerotheca fuliginea (powdery mildew on cucurbits). Particulars: Podosphaera fuliginea, 192 h; 500 ppm of active ingredient, sprayed on young gherkin plants 24 h before inoculation; evaluated 8 days after inoculation; read-out: efficacy. Here is the method: B-3. […] The active ingredients were made soluble and homogenized in a mixture of Dimethyl sulfoxide/Acetone//Tween® 80 and then diluted in water to the desired concentration. The young plants of gherkin were treated by spraying the active ingredient prepared as described above. Control plants were treated only with an aqueous solution of Acetone/Dimethyl sulfoxide/Tween® 80. After 24 hours, the plants were contaminated by spraying the leaves with an aqueous suspension of Sphaerotheca fuliginea spores.

Data set [1] relates to Colletotrichum lindemuthianum. The data set can be described thus: In vivo preventive test on Colletotrichum lindemuthianum (leaf spot on bean). Conditions: 168 h, 500 ppm of active ingredient, sprayed on young bean plants 24 h before inoculation, evaluated 7 days after inoculation, read-out: efficacy. Here is the method: B-4. […] The active ingredients were made soluble and homogenized in a mixture of Dimethyl sulfoxide/Acetone//Tween® 80 and then diluted in water to the desired concentration. The young plants of bean were treated by spraying the active ingredient prepared as described above. Control plants were treated only with an aqueous solution of Acetone/Dimethyl sulfoxide/Tween® 80. After 24 hours, the plants were contaminated by spraying the leaves with an aqueous suspension of Colletotrichum lindemuthianum spores.

In data set [2] the test system is Colletotrichum lindemuthianum. The data set can be described thus: Colletotrichum lindemuthianum in vitro cell test. Format: cell-based. Conditions: 144 h, 20 ppm of active ingredient, liquid culture, 6 days incubation, read-out: efficacy (inhibition of fungal growth). A digest of the protocol:
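C. lindemuthianum spores in liquid glucose–peptone–yeast extract medium were exposed to compounds dissolved in DMSO. After 6 days, mycelial growth was measured by absorbance, and inhibition was calculated against compound-free control wells.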

For the next data set, the system named is Pyrenophora teres. As to the kind of experiment: Pyrenophora teres in vitro cell test. Format: cell-based. Particulars: 144 h, 20 ppm of active ingredient, liquid culture, 6 days incubation, read-out: efficacy (inhibition of fungal growth). The procedure, abridged: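 Compounds in DMSO were added to P. teres spore suspensions in glucose/peptone/yeast-extract liquid medium, testing inhibition of spore germination and mycelium growth. After 6 days, mycelium growth was read by absorbance. Inhibition was calculated relative to fungicide-free control wells.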

In a further data set the test system is Fusarium culmorum. The data set can be described thus: Fusarium culmorum in vitro cell test. Format: cell-based. Particulars: 120 h, 20 ppm of active ingredient, liquid culture, 5 days incubation, read-out: efficacy (inhibition of fungal growth). The procedure, abridged:
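Spores in liquid mineral-salts/saccharose medium exposed to compounds (DMSO ≤1% final) for 5 days. Mycelium growth measured spectrometrically, with inhibition derived from absorbance relative to fungicide-free control wells.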

Data set [3] has as its system Botrytis cinerea. As to the kind of experiment: In vivo preventive test on Botrytis cinerea (grey mould). Conditions: 500 ppm of active ingredient, sprayed on young gherkin or cabbage plants 24 h before inoculation, evaluated 4 to 5 days after inoculation, read-out: efficacy. A digest of the protocol: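 Compounds in DMSO/acetone/Tween 80 were diluted in water and sprayed onto young gherkin or cabbage plants; controls got solvent only. After 24 h, leaves were sprayed with an aqueous Botrytis cinerea spore suspension.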

A short description of data set [4]: Measurement of Log P values by HPLC on reversed phase columns (EEC directive 79/831 Annex V.A8). Format: physicochemical. Particulars: Table 1, compounds of formula (I); method [a]: LC-UV, acidic range, 0.1% formic acid in water and acetonitrile.
In data set [5] the test system is Botrytis cinerea. As to the kind of experiment: Botrytis cinerea in vitro cell test. Format: cell-based. Conditions: 144 h, 20 ppm of active ingredient, liquid culture, 6 days incubation, read-out: efficacy (inhibition of fungal growth). A digest of the protocol: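 Compounds from DMSO stocks added at a range of concentrations to a defined mineral-salt/sucrose liquid medium inoculated with B. cinerea spores. After 6 days' incubation, mycelium growth was read by absorbance; inhibition of germination and growth was calculated against fungicide-free control wells.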

The subject of the next data set is Alternaria alternata. As to the kind of experiment: Alternaria alternata in vitro cell test. Format: cell-based. Conditions: 120 h, 20 ppm of active ingredient, liquid culture, 5 days incubation, read-out: efficacy (inhibition of fungal growth). A digest of the protocol:
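Spores in glucose/mycological peptone/yeast extract liquid medium were exposed to DMSO-dissolved fungicides for 5 days. Inhibition of germination and mycelial growth was read spectrophotometrically, comparing absorbance against fungicide-free control wells.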

A further data set relates to Pyricularia oryzae. The data set can be described thus: microbe, parasite or virus in culture. Format: cell-based. Conditions: 120 h, read-out: efficacy (inhibition of fungal growth), 20 ppm of active ingredient, liquid culture, 5 days incubation.

Structures are written as SMILES.

Usually inhibition stands for the share of the control response that was lost under treatment. A word on the chromatographic logP: it is a lipophilicity value derived from retention on a column. Regarding `Cc1cccc(Sc2cnc(C)nc2C2=NOC[C@@H](Cc3ccc(C)cc3Cl)N2)c1` (racemic) [Compound I-010], the inhibition at 20 ppm (in the data set with Septoria tritici; in [2]; with Pyrenophora teres; with Fusarium culmorum) was 90 to 100% in each case. Besides, the pest or weed control at 500 ppm in the data set on Alternaria brassicae is 80 to 89%; in the data set on Sphaerotheca fuliginea, 90 to 100%; in data set [1], 90 to 100%; with Botrytis cinerea [3], 90 to 100%. The compound further registered a chromatographic logP in data set [4] of 5.17.
As to `Cc1ccc(C[C@H]2CON=C(c3nc(C)ncc3Sc3cccc(C(F)(F)F)c3)N2)c(Cl)c1` (racemic) [Compound I-013], the inhibition at 20 ppm (in the data set on Botrytis cinerea [5]; in the data set with Septoria tritici; in [2]) was 90 to 100% each time. For the same compound, the pest or weed control at 500 ppm in the data set on Alternaria brassicae was in the range of 80 to 89%; with Sphaerotheca fuliginea, 90 to 100%; in data set [1] it was 90 to 100%; in the data set with Botrytis cinerea [3], 90 to 100%. In data set [4], the chromatographic logP came out at 5.28.
Consider `Cc1ccc(CC2CON=C(c3cc(Cl)nnc3Sc3cccc(C(F)(F)F)c3)N2)c(C)c1` (racemic) [Compound I-017, (5RS)-3-(6-chloro-3-{[3-(trifluoromethyl)phenyl]sulfanyl}pyridazin-4-yl)-5-(2,4-dimethylbenzyl)-5,6-dihydro-4H-1,2,4-oxadiazine], for which the inhibition at 20 ppm in the data set on Botrytis cinerea [5] lay in the range of 90 to 100%; with Septoria tritici, 90 to 100%; with Alternaria alternata, 80 to 89%; in the data set with Pyricularia oryzae it was 80 to 89%; in [2], 90 to 100%. For the same compound, the pest or weed control at 500 ppm (in the data set on Alternaria brassicae; with Sphaerotheca fuliginea; in data set [1]; in the data set on Botrytis cinerea [3]) was 90 to 100% throughout. The compound further came in with a chromatographic logP in data set [4] of 5.27.
